Columns and labels:
Tyk2 enzyme = target: T1, Tyk2 enzyme (Homo sapiens, UniProt P29597); test: In vitro enzyme assay (Cisbio kinase assay), Tyk2; format: biochemical; settings: ATP 300 μM; read-out: Enzymatic assay: Tyk2
T1 construct: purchased Life Technologies PR8440C

JAK3 = target: T2, JAK3 (Homo sapiens, UniProt P52333); test: In vitro enzyme assay (Cisbio kinase assay), JAK3; format: biochemical; settings: ATP 300 μM; read-out: Enzymatic assay: JAK3
T2 construct: purchased Life Technologies PV3855
T2 sequence (P52333 1-1124): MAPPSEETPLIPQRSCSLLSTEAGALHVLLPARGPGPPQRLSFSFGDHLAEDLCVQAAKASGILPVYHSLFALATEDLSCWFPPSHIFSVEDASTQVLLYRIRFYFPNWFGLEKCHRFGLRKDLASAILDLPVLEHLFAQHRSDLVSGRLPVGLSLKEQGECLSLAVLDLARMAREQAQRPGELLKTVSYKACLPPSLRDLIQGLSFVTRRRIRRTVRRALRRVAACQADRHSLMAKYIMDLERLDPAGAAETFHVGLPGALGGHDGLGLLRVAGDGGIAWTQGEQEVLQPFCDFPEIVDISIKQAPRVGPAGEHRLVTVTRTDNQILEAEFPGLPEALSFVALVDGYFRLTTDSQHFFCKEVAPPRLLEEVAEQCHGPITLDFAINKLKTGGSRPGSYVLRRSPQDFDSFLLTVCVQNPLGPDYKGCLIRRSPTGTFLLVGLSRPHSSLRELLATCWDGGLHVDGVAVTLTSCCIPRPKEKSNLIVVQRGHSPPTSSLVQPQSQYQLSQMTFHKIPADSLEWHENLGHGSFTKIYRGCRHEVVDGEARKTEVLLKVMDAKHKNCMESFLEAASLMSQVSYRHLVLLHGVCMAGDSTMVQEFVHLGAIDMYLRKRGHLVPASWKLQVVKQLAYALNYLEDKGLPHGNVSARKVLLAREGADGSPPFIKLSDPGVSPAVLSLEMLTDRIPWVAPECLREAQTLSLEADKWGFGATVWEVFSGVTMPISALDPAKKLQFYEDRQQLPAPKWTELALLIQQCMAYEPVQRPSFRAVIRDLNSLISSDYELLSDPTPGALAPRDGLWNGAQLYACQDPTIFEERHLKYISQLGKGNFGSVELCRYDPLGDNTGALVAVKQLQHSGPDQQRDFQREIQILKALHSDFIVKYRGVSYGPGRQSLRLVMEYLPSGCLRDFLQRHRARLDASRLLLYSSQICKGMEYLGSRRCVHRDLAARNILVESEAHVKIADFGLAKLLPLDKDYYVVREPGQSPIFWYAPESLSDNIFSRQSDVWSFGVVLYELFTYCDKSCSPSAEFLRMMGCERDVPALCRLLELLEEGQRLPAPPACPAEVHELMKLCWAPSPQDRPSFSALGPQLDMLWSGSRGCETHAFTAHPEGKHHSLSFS

[1] = Protein binding analysis (RED), minipig plasma; format: in vitro ADME; settings: male, Göttingen, pH 7.4, read-out: minipig FU
Protocol: (§1) The protein binding was assessed in plasma of Human, male balb-c mice, male Wistar Han rat, male Göttingen minipig by rapid equilibrium dialysis (RED) devices. After the plasma and buffer phosphate 50 mM pH7.4 were equilibrated at 37° C., the compound was added to plasma to reach a final concentration of 5 μM. An aliquot of plasma was withdrawn immediately. Equilibration under mild agitation was continued for 4 h. The plasma and buffer were sampled and samples were quenched with 4 volumes of acetonitrile and centrifuged. Supernatant was quantified in HPLC/MS/MS to calculate the recovery and the percentage of compound dissolved in the buffer (unbound) and bound to plasma proteins.

hERG channel = target: T3, hERG channel (Homo sapiens, UniProt Q12809); test: In vitro hERG channel whole cell patch clamp; format: cell-based; settings: CHO-K1 cells expressing hERG
T3 construct: expressed in transfected cells; host or cells: CHO-K1
T3 sequence (Q12809 whole entry): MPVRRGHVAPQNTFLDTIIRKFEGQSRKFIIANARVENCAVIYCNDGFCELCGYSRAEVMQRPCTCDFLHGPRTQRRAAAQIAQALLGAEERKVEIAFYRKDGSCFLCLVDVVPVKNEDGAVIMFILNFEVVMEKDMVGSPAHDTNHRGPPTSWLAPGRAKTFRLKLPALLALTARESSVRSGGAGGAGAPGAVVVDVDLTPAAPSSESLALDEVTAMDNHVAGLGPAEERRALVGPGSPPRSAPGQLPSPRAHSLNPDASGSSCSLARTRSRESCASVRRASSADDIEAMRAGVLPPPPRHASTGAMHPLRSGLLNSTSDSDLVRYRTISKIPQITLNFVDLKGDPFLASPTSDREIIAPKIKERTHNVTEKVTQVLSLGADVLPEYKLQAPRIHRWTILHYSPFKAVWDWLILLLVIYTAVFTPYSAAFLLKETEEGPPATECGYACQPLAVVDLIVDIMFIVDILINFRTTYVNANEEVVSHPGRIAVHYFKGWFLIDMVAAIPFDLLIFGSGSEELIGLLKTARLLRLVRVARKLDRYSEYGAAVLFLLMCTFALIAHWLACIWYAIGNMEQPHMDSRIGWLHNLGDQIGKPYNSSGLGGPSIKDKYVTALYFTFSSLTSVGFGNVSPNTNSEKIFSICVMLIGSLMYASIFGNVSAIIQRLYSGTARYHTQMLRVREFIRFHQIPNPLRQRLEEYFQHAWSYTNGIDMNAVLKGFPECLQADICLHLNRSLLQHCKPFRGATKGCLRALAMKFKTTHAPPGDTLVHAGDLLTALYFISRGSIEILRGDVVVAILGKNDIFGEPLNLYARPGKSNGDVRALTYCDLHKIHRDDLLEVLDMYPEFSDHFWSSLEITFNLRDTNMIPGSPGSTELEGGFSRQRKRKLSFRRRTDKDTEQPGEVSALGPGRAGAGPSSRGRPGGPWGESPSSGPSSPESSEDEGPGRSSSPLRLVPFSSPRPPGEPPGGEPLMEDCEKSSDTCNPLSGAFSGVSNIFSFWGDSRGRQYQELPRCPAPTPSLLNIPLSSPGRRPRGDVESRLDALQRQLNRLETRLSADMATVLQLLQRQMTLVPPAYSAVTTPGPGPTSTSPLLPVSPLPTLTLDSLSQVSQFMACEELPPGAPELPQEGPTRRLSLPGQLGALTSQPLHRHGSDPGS
Protocol: Blockade of the delayed rectifier potassium current (IKr) encoded by hERG gene (human ether a go go-related gene) can lead to QT interval prolongation and is therefore investigated as part of the cardiac risk assessment. This channel is critical for the repolarisation of the cardiac membrane. The effect of the compounds on IKr was assessed by whole cell patch clamp in stably transfected CHO-K1 cells expressing hERG (Human Ether-a-go-go Related Gene) channel following superfusion at different concentrations up to 30 μM.

CYP3A4 = target: T4, CYP3A4 (Homo sapiens, UniProt P08684); test: CYP3A inhibition in human liver microsomes; format: in vitro ADME; settings: testosterone, CRL data, read-out: IC50 CYP3A4 testo.
T4 construct: Human pooled liver microsomes of mixed gender (mainly Caucasian); from tissue; host or cells: pooled human liver microsomes
T4 sequence (P08684 2-503): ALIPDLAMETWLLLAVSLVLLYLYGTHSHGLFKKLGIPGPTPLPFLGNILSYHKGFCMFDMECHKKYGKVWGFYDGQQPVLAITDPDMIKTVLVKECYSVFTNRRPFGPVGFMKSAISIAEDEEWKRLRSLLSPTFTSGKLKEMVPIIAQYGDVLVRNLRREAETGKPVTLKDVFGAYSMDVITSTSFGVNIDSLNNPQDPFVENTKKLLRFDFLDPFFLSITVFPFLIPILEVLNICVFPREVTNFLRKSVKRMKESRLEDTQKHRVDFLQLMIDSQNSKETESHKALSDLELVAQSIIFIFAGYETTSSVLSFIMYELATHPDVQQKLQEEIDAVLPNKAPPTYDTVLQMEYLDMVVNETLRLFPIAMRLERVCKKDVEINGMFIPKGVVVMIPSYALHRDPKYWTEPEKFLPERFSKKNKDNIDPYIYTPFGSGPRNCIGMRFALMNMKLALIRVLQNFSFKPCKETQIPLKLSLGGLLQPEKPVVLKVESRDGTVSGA

[2] = Intrinsic clearance in hepatocytes, human; format: in vitro ADME; settings: 2.5 μM
Protocol: The intrinsic clearance was assessed in cryopreserved Hepatocytes obtained by Human livers donors of mix gender pooled together, male balb-c mouse, male Wistar Han rats and male Göttingen minipig, by looking at the parent compound disappearance. The incubations were performed using a final concentration of viable cells of 1 million/ml (viability above 70%) and test item of 2.5 μM. Incubations were followed up to 2 h. Aliquotes were withdrawn at different time points and reaction quenched with acetonitrile. After centrifugation the supernatant was analyzed by HPLC/MS to quantify the remaining amount of parent in comparison with time 0. The clearance was calculated by fitting the log of the percentage remaining with Graphpad Prism ver.7.

pKa = format: physicochemical
Chrom logD pH 7.4 = format: physicochemical
IL6 = test: hWB assay, IL6; format: cell-based, h
[3] = Systemic level in PD/IL6 mouse topical dose response; format: in vivo, BALB/c ByJ Rj mice; settings: topical 10 mM
Protocol: Skin samples were harvested 15 min.

[4] = Protein binding analysis (RED), mouse plasma; format: in vitro ADME, male balb-c mice; settings: 5 μM
Protocol: as §1

[5] = Human skin ex vivo: flux through skin and dermis concentration (Franz cells); format: in vitro ADME; settings: PG/H2O cream 1 mg/mL, human skin
[6] = Protein binding analysis (RED), rat plasma; format: in vitro ADME, male Wistar Han rat; settings: 5 μM
Protocol: as §1

T1 sequence (P29597 whole entry): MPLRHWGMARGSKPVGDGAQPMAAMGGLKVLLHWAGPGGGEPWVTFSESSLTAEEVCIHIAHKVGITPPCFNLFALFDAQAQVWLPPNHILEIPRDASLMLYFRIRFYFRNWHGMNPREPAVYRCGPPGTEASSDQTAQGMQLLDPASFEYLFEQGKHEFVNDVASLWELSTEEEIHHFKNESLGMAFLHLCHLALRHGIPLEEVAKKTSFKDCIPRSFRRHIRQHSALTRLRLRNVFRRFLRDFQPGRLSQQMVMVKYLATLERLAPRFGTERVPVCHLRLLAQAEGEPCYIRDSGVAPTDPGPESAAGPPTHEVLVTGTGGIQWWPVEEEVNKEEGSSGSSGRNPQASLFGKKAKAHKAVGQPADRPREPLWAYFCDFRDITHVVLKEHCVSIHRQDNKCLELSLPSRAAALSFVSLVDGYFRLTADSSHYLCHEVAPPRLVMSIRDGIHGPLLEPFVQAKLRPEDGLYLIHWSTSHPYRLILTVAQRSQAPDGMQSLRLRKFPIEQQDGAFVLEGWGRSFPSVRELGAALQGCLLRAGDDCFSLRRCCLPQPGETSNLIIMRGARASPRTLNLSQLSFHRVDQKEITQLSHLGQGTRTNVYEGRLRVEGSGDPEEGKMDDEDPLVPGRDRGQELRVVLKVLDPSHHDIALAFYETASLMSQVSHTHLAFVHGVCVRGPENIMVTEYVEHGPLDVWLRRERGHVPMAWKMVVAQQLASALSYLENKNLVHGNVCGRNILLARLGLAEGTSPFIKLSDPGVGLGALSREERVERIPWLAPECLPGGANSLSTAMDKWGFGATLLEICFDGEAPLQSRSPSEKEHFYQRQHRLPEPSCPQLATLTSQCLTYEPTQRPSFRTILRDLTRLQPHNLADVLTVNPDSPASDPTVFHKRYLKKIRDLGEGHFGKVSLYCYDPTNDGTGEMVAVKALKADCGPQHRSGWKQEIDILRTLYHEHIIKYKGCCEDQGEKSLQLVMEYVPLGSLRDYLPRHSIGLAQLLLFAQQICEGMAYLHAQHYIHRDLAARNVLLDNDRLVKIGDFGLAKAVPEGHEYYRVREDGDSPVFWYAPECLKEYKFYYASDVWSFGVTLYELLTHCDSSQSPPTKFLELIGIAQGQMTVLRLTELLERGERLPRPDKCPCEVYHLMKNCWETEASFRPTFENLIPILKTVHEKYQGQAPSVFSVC

O=S(=O)(N[C@H]1C[C@@H](N2CCOc3cnc4[nH]ccc4c32)C1)C1CN(C2CC2)C1 [Compound E, 1-Cyclopropyl-N-((cis)-3-(2,3-dihydropyrrolo[3′,2′:5,6]pyrido[3,4-b][1,4]oxazin-1(7H)-yl)cyclobutyl)azetidine-3-sulfonamide]
IC50 (Tyk2 enzyme): 3.45 µM | IC50 (JAK3): > 10 µM | fraction unbound at 4 h, 5 μM [1]: 0.32 | IC50 (hERG channel): 15 µM | IC50 (CYP3A4): 5 µM | Intr. Clear. h heps [2]: 6.5 microL/min/10 6 cells | pKa (pKa): 6.1 | chromatographic logD (Chrom logD pH 7.4): 0.8 | IC50 (IL6): 1.6 µM | PD/IL6 mouse top DR 0.01-10 mM (PG/Acetone/Transcutol): Systemic level @10 mM - 2 hrs [3]: 185 nM | mFU [4]: 28% | dermis concentration [5]: 2.2 µM | measured flux 6-24 hr [5]: < 0.24 ng/cm^2/hr | rFU [6]: 16%

From patent US12583868B2, “JAK inhibitors and methods for synthesizing and using thereof” (GALDERMA HOLDING SA, priority 2020, dated 2026)
